Results published in patent US11912970B2, “Universal microfluidic culture system to analyze and control cell dynamics” (The University of Chicago, priority 2017, dated 2024).

Experiments:
[1] = tested on: Hes5-GFP expression in NSCs; test: NSCs Hes5-GFP expression under sequential ligand inputs (permutation test and decision tree analysis); type: cell-based, mouse; details: for Hes5 expression relative to control: sequential input
Text: (§1) Murine hematopoietic stem cells (HSC) are isolated by FACSAria III flow cytometer (BD Biosciences) as Lin−/c-Kit+/Sca-1+/CD48−/CD150+/CD34− (lineage, Lin: CD3e/CD11b/CD19/CD41/B220/Gr-1/Ter-119), which are approximately 50% pure HSCs. Macrophage colony-stimulating factor (M-CSF), a myeloid cytokine released during infection and inflammation, is employed to induce HSCs differentiation. Human CD34+ cells were isolated from mononuclear cells using EasySepTM human CD34 positive selection kit (Stemcell Technologies, Vancouver, BC, Canada). CD34+CD38−CD45RA−CD90+CD49f+ HSCs were sorted using a FACSAria III flow cytometer (BD Biosciences). Pro- and anti-inflammatory cytokines including TNF, IFN[…], IL-6, IP10 and MCP-1 are introduced into the cellular environment as single ligand and in combination. Embryonic NSCs with Hes-GFP and Dcx-RFP reporters were isolated at embryonic day 13.5 from a transgenic mice carrying Hes-GFP and Dcx-RFP using standard protocol (Woo, et al., 2009; Basak, et al., 2007). The resulting primary cells were verified to carry both Hes5-GFP and Dcx-RFP after isolation and allowed to grow for few passages before use in the experiments (Giachino, et al., 2009). NSCs were cultured as neurospheres in culture media (DMEM/F12+Glutamax (Gibco No:31331-028); 10 U/ml penicillin; 10 ug/ml Streptomycin; B27 supplement (1:50); FGF growth factor 0.02 ug/ml). As NSCs are sensitive to environmental variations, cell handling protocol before loading into the chip is examined systematically (including dissociation, FACS sorting, etc.). To obtain the optimal results, NSCs spheres are collected and loaded into the chip 24 hours after fresh dissociation wherein each sphere contains ˜7 to 10 cells. […]
(§2) For image acquisition, a Nikon Ti-ECLIPSE microscope with an automated translation stage and a digital CMOS camera (ORCA-Flash 4.0, Hamamatsu, Japan) was used. […] Bright field and fluorescence images were acquired and analyzed using a customized MATLAB program (Mathworks, […]). The algorithm extracts single cell traces including position, nuclear and cytoplasm fluorescence level. For example, the 3T3 cell nuclear area in each image is identified via the fluorescent nuclear marker GFP, and then the mean value of the nuclear intensity of the p65-DsRed marker is measured, and plotted as a function of time.
(§3) To investigate the role of combinatorial or temporal ordering of signals in NSC differentiation, the inventors cultured NSCs under combinatorial and sequential applications of the six regulatory ligands (FIG. 8A, FIGS. 22 and 23). […] The inventors measured the ratio of the ligand-treated cells to untreated control for cell number and Hes5-GFP expression intensity. […] Multiple experiments were repeated resulting in nearly 3000 dynamic cultures analyzed. […]

NSCs [2] = test: NSCs cell fate (self-renewal or differentiation) from Hes5 level and cell numbers under sequential stimulation; type: cell-based, mouse; details: for cell fate outcome: sequential input
Text: (§4) Murine hematopoietic stem cells (HSC) are isolated by FACSAria III flow cytometer (BD Biosciences) as Lin−/c-Kit+/Sca-1+/CD48−/CD150+/CD34− (lineage, Lin: CD3e/CD11b/CD19/CD41/B220/Gr-1/Ter-119), which are approximately 50% pure HSCs. Macrophage colony-stimulating factor (M-CSF), a myeloid cytokine released during infection and inflammation, is employed to induce HSCs differentiation. Human CD34+ cells were isolated from mononuclear cells using EasySepTM human CD34 positive selection kit (Stemcell Technologies, Vancouver, BC, Canada). CD34+CD38−CD45RA−CD90+CD49f+ HSCs were sorted using a FACSAria III flow cytometer (BD Biosciences). Pro- and anti-inflammatory cytokines including TNF, IFN[…], IL-6, IP10 and MCP-1 are introduced into the cellular environment as single ligand and in combination. Embryonic NSCs with Hes-GFP and Dcx-RFP reporters were isolated at embryonic day 13.5 from a transgenic mice carrying Hes-GFP and Dcx-RFP using standard protocol (Woo, et al., 2009; Basak, et al., 2007). The resulting primary cells were verified to carry both Hes5-GFP and Dcx-RFP after isolation and allowed to grow for few passages before use in the experiments (Giachino, et al., 2009). NSCs were cultured as neurospheres in culture media (DMEM/F12+Glutamax (Gibco No:31331-028); 10 U/ml penicillin; 10 ug/ml Streptomycin; B27 supplement (1:50); FGF growth factor 0.02 ug/ml). As NSCs are sensitive to environmental variations, cell handling protocol before loading into the chip is examined systematically (including dissociation, FACS sorting, etc.). To obtain the optimal results, NSCs spheres are collected and loaded into the chip 24 hours after fresh dissociation wherein each sphere contains ˜7 to 10 cells. To avoid potential artifacts due to prolonged in vitro culture, only NSCs within 10 passages were used in the study.
To investigate the role of combinatorial or temporal ordering of signals in NSC differentiation, the inventors cultured NSCs under combinatorial and sequential applications of the six regulatory ligands (FIG. 8A, FIGS. 22 and 23). For each independent NSC culture on the chip, the inventors introduced either one ligand each day (sequential inputs), or a combination of the selected ligands over a six-day period (combinatorial inputs). The inventors measured the ratio of the ligand-treated cells to untreated control for cell number and Hes5-GFP expression intensity. Each chip experiment consisted of 63 combinatorial and 720 sequential stimulation experiments, with duplicates (FIG. 8B). Multiple experiments were repeated resulting in nearly 3000 dynamic cultures analyzed. The inventors subjected all experimental outputs of NSC cell numbers and Hes5 expression to regression and classification tree analyses. […]

NSCs [3] = test: NSCs proliferation (cell number) under sequential ligand inputs (permutation test and decision tree analysis); type: cell-based, mouse; details: sequential input
Text: as §1, §2, §3

NSCs [4] = test: NSCs proliferation (cell number) under combinatorial ligand inputs (permutation test and decision tree analysis); type: cell-based, mouse; details: ligands in isolation or as a pair (synergy)
Text: (§5) Murine hematopoietic stem cells (HSC) are isolated by FACSAria III flow cytometer (BD Biosciences) as Lin−/c-Kit+/Sca-1+/CD48−/CD150+/CD34− (lineage, Lin: CD3e/CD11b/CD19/CD41/B220/Gr-1/Ter-119), which are approximately 50% pure HSCs. Macrophage colony-stimulating factor (M-CSF), a myeloid cytokine released during infection and inflammation, is employed to induce HSCs differentiation. Human CD34+ cells were isolated from mononuclear cells using EasySepTM human CD34 positive selection kit (Stemcell Technologies, Vancouver, BC, Canada). CD34+CD38−CD45RA−CD90+CD49f+ HSCs were sorted using a FACSAria III flow cytometer (BD Biosciences). […]
as §2, with “time. […]” for “time.”

[5] = tested on: Hes5-GFP expression in NSCs; test: NSCs Hes5 expression under combinatorial ligand inputs (permutation test and decision tree analysis); type: cell-based, mouse; details: combinatorial input; for Hes5 expression, mean ratio relative to control: decision tree
Text: as §4
For image acquisition, a Nikon Ti-ECLIPSE microscope with an automated translation stage and a digital CMOS camera (ORCA-Flash 4.0, Hamamatsu, Japan) was used. The stage and image acquisition was controlled via the NIS Elements software. Bright field and fluorescence images were acquired and analyzed using a customized MATLAB program (Mathworks, […]). The algorithm extracts single cell traces including position, nuclear and cytoplasm fluorescence level. For example, the 3T3 cell nuclear area in each image is identified via the fluorescent nuclear marker GFP, and then the mean value of the nuclear intensity of the p65-DsRed marker is measured, and plotted as a function of time.
To investigate the role of combinatorial or temporal ordering of signals in NSC differentiation, the inventors cultured NSCs under combinatorial and sequential applications of the six regulatory ligands (FIG. 8A, FIGS. 22 and 23). For each independent NSC culture on the chip, the inventors introduced either one ligand each day (sequential inputs), or a combination of the selected ligands over a six-day period (combinatorial inputs). The inventors measured the ratio of the ligand-treated cells to untreated control for cell number and Hes5-GFP expression intensity. Each chip experiment consisted of 63 combinatorial and 720 sequential stimulation experiments, with duplicates (FIG. 8B). Multiple experiments were repeated resulting in nearly 3000 dynamic cultures analyzed. The inventors subjected all experimental outputs of NSC cell numbers and Hes5 expression to regression and classification tree analyses. NSCs' cellular states were categorized into two groups: differentiation (with decreased Hes5 level and cell numbers) and self-renewal (with increased Hes5 level and cell numbers) (FIG. 8D).
In this work, the inventors use decision tree analysis to generate descriptive and predictive models which map measurements about cell phenotypic features (i.e., cell count and Hes5-GFP expression) to experimental conditions (i.e., sequential and combinatorial application of six regulatory ligands) (Breiman, 1984). […]

[6] = tested on: Hes5-GFP expression in NSCs; test: NSCs Hes5 level with sole presence of one ligand, on-chip culture; type: cell-based, mouse
Protocol: FIG. 6B depicts a histogram of Hes5-GFP expression in NSCs before (red) and after (black) one week culture with 100 ng/ml PDGF. High levels of Hes5 in NSCs indicate maintenance of stem cell state, while reduced Hes5 indicates progress towards differentiation.
Murine hematopoietic stem cells (HSC) are isolated by FACSAria III flow cytometer (BD Biosciences) as Lin−/c-Kit+/Sca-1+/CD48−/CD150+/CD34− (lineage, Lin: CD3e/CD11b/CD19/CD41/B220/Gr-1/Ter-119), which are approximately 50% pure HSCs. Macrophage colony-stimulating factor (M-CSF), a myeloid cytokine released during infection and inflammation, is employed to induce HSCs differentiation. […]
as §2

NF-κB in 3T3 cells = test: TNF-alpha induced NF-κB activation in 3T3 fibroblasts on chip; type: cell-based, mouse
Text: The inventors took advantage of the long-term stable culture capability of the device and extended TNF-alpha induced NF-κB activation study in 3T3 fibroblasts for up to a week. The response of 3T3 cells to TNF-alpha stimulation is characterized by the nuclear translocation of transcription factor NF-κB, and visualized through automated fluorescence imaging (Kellogg, et al., 2015). Both single cells and a population of cells were successfully maintained in the present culture chambers, and were stimulated with series of TNF-alpha concentrations (0.001 to 100 ng/ml), which were simultaneously generated on-chip. […]
as §2

human HSCs = type: cell-based; details: TNF with other participating cytokines
Protocol: FIG. 3C depicts a chart of long-term culture and TNF stimulation of human hematopoietic stem cells (HSCs). Cells were cultured on the microfluidic device in the absence of TNF (control) and 1 ng/ml TNF, for up to 5 days. […] N indicates cell numbers per chamber. […] D represents dynamic cytokine inputs, daily variation between 0.1 and 10 ng/ml.
Besides being a signaling protein involved in systemic inflammation, TNF-alpha is also widely employed to mimic the post-transplantation signaling environment (Mohabbat, et al., 2012). To mimic clinical hematopoietic stem cell transplantation (HSCT), different doses of TNF-alpha are directed to designated culture chambers housing HSCs by programmed medium exchange procedures. […] In both cases, cells proliferate at a similar, if not higher, rate than those in bulk experiments in traditional culture dishes.
as §5, with “Canada).” for “Canada). CD34+CD38−CD45RA−CD90+CD49f+ HSCs were sorted using a FACSAria III flow cytometer (BD Biosciences).”

Substance: EGF: signaling ligand whose receptor is highly expressed during mouse forebrain development (NSYPGCPSSYDGYCLNGGVCMHIESLDSYTCNCVIGYSGDRCQTRDLRWWELR; not fully specified; Epidermal growth factor; UniProt P01132 977-1029, looked up)
- Hes5 expression relative to control ([1]; ligand added at day 1): 86.8 % of the control
- Hes5 expression (NSCs [2]; six-ligand sequence, ligand application moved to day 6): significant reduction in Hes5 expression
- Hes5 expression and cell numbers (NSCs [2]; six-ligand sequence, ligand delivered on day 2): high Hes5 expression levels and unchanged cell numbers
- cell number raised by a factor (NSCs [3]; CXCL added at day 1, ligand added at day 2): 1.19 factor
- cell number raised by a factor (NSCs [3]; Jagged added at day 1, ligand added at day 2): 1.38 factor
- effect on cell number (NSCs [3]; ligand added at day 1 alone): does not introduce significant increase of cell number
- increased cell number (NSCs [4]): 60%

Substance: PDGF
- Hes5 expression outcome ([1]; decision tree, ligand present on the 1st day of culture): high Hes5 expression levels
- Hes5 expression relative to control ([1]; DLL added at day 1, ligand applied at day 2): 89.2 % of the control level
- Hes5 expression relative to control ([1]; ligand added at day 1): 126.6 % of the control
- cell fate outcome (NSCs [2]; DLL in day-1, ligand moved to day-2): promoting differentiation
- cell fate outcome (NSCs [2]; ligand at day 1): NSCs self-renewal
- Hes5 expression, mean ratio relative to control ([5]; PDGF present, without DLL): 1.22
- Hes5 expression, mean ratio relative to control ([5]; PDGF present, without DLL, CXCL): 1.37
- Hes5 expression, mean ratio relative to control ([5]; PDGF present, without DLL, CXCL or EGF): 1.56
- Hes5 expression, mean ratio relative to control ([5]; ligand present): ≥ 1.11
- increase of Hes5 expression by a factor ([5]; permutation test): 1.06 factor
- Hes5 expression relative to control ([5]; permutation test, combined with DLL): 99.3 % of the control level
- cell number relative to control (NSCs [3]; ligand added at day 1): 85.4 % of the control
- increase of Hes5 level from its initial value [6]: around 25%

Substance: TNF-alpha
- single cell response to pulse stimulation (NF-κB) (NF-κB in 3T3 cells; 0.1 and 0.2 ng/ml, first pulse, single cell level): all cells respond to the first pulse stimulation
- cytoplasm NF-κB level (NF-κB in 3T3 cells; prolonged incubation and stimulation for one week): proportional to TNF-alpha concentration

Substance: IFNγ: cytokine combined with TNF on human HSCs
- effect on TNF induced cell death (human HSCs): neutralize TNF induced cell death
